Measured values: ChEMBL document CHEMBL1139274, “Synthesis and evaluation of electron-rich curcumin analogues” (Bioorg Med Chem, 2009)

Columns and labels:
SK-BR-3 = assay: Antiproliferative activity against human SKBR3 cells after 72 hrs by MTS-PMS assay; format: functional, cell-based; conditions: SK-BR-3, 72 h
MCF7 = assay: Antiproliferative activity against human MCF7 cells after 72 hrs by MTS-PMS assay; format: functional, cell-based; conditions: MCF7, 72 h

`COc1cc(/C=C/c2cc(/C=C/c3ccc(O)c(OC)c3)on2)ccc1O` showed an IC50 (SK-BR-3) of 4 µM and an IC50 (MCF7) of 1.76 µM.

In the case of `COc1ccc(/C=C/C(=O)C(C)C(=O)/C=C/c2ccc(OC)c(OC)c2)cc1OC`, the IC50 (SK-BR-3) is reported as 1.02 µM and the IC50 (MCF7) is reported as 1.09 µM.

`COc1ccc(/C=C/c2n[nH]c(/C=C/c3ccc(OC)c(OC)c3)c2C)cc1OC` gave an IC50 (SK-BR-3) greater than 100 µM and an IC50 (MCF7) of 8.16 µM.

In the case of `COC(=O)/C=C/c1c(/C=C/c2ccc(OC)c(OC)c2)n[nH]c1/C=C/c1ccc(OC)c(OC)c1`, the IC50 (SK-BR-3) is reported as greater than 100 µM and the IC50 (MCF7) is reported as 49.5 µM.

In the case of `CCOc1ccc(/C=C/c2n[nH]c(/C=C/c3ccc(OCC)c(OC)c3)c2/C=C/C(=O)OC)cc1OC`, the IC50 (SK-BR-3) is reported as 5.99 µM and the IC50 (MCF7) is reported as 11.4 µM.

Work on `COc1ccc(/C=C/c2cc(/C=C/c3ccc(OC)c(OC)c3)on2)cc1OC` yielded an IC50 (SK-BR-3) greater than 100 µM and an IC50 (MCF7) of 59.5 µM.

Work on `COc1ccc(/C=C/c2n[nH]c(/C=C/c3ccc(OC)c(OC)c3)c2/C=C/CO)cc1OC` yielded an IC50 (SK-BR-3) greater than 100 µM and an IC50 (MCF7) greater than 100 µM.

Work on `CCOC(=O)CCc1c(/C=C/c2ccc(OC)c(OC)c2)noc1/C=C/c1ccc(OC)c(OC)c1` yielded an IC50 (SK-BR-3) greater than 100 µM and an IC50 (MCF7) greater than 100 µM.

`COc1ccc(/C=C/c2noc(/C=C/c3ccc(OC)c(OC)c3)c2C)cc1OC` was tested, and the IC50 (SK-BR-3) was 42.5 µM and the IC50 (MCF7) was 55.7 µM.

Work on `COc1ccc(/C=C/c2cc(/C=C/c3ccc(OC)c(OC)c3)[nH]n2)cc1OC` yielded an IC50 (SK-BR-3) of 1.58 µM and an IC50 (MCF7) of 12.7 µM.

Compound `CCOC(=O)CCc1c(/C=C/c2ccc(OC)c(OC)c2)n[nH]c1/C=C/c1ccc(OC)c(OC)c1` has an IC50 (SK-BR-3) of 11.7 µM and an IC50 (MCF7) of 10.1 µM.

`CCOC(=O)CCC(C(=O)/C=C/c1ccc(O)c(OC)c1)C(=O)/C=C/c1ccc(O)c(OC)c1` was tested, and the IC50 (SK-BR-3) was 4.38 µM and the IC50 (MCF7) was 1.96 µM.

Compound `CCOC(=O)/C=C/C(C(=O)/C=C/c1ccc(OC)c(OC)c1)C(=O)/C=C/c1ccc(OC)c(OC)c1` has an IC50 (SK-BR-3) of 1.96 µM and an IC50 (MCF7) of 1.28 µM.

In the case of `COc1ccc(/C=C/C(=O)C(/C=C/CO)C(=O)/C=C/c2ccc(OC)c(OC)c2)cc1OC`, the IC50 (SK-BR-3) is reported as 1.24 µM and the IC50 (MCF7) is reported as 0.796 µM.

Work on `COC(=O)/C=C/C(C(=O)/C=C/c1ccc(OC)c(OC)c1)C(=O)/C=C/c1ccc(OC)c(OC)c1` yielded an IC50 (SK-BR-3) of 0.564 µM and an IC50 (MCF7) of 0.512 µM.

In the case of `CCOC(=O)CCC(C(=O)/C=C/c1ccc(OC)c(OC)c1)C(=O)/C=C/c1ccc(OC)c(OC)c1`, the IC50 (SK-BR-3) is reported as greater than 100 µM and the IC50 (MCF7) is reported as greater than 100 µM.

`CCOC(=O)CCc1c(/C=C/c2ccc(O)c(OC)c2)n[nH]c1/C=C/c1ccc(O)c(OC)c1` gave an IC50 (SK-BR-3) of 5.6 µM and an IC50 (MCF7) of 6.01 µM.

Compound `CCOC(=O)CCc1c(/C=C/c2ccc(O)c(OC)c2)noc1/C=C/c1ccc(O)c(OC)c1` has an IC50 (SK-BR-3) of 13.9 µM and an IC50 (MCF7) of 13.2 µM.

For `COc1ccc(/C=C/c2n[nH]c(/C=C/c3ccc(OC)c(OC)c3)c2/C=C/C(N)=O)cc1OC`, the IC50 (SK-BR-3) was 52.6 µM and the IC50 (MCF7) was 39.9 µM.

`COc1ccc(/C=C/C(=O)C(/C=C/C(N)=O)C(=O)/C=C/c2ccc(OC)c(OC)c2)cc1OC` gave an IC50 (SK-BR-3) of 9.83 µM and an IC50 (MCF7) of 5.35 µM.

`COc1cc(/C=C/c2cc(/C=C/c3ccc(O)c(OC)c3)[nH]n2)ccc1O` [CURCUMIN PYRAZOLE] gave an IC50 (SK-BR-3) of 0.258 µM and an IC50 (MCF7) of 4.19 µM.

`COc1cc(/C=C/C(=O)CC(=O)/C=C/c2ccc(O)c(OC)c2)ccc1O` [CURCUMIN] gave an IC50 (SK-BR-3) of 2.11 µM and an IC50 (MCF7) of 5.58 µM.

Work on `COc1ccc(/C=C/C(=O)CC(=O)/C=C/c2ccc(OC)c(OC)c2)cc1OC` [TETRAMETHOXYCURCUMIN] yielded an IC50 (SK-BR-3) of 0.955 µM and an IC50 (MCF7) of 1.07 µM.
